This is an account of results in patent US8871934B2, “Fluorene compound and pharmaceutical use thereof” (Japan Tobacco Inc., priority 2008, dated 2014).

Structures are written as SMILES. Like-named read-outs stand apart in the source and are kept apart here.

This test addresses human PDHK2 (hPDHK2) (Homo sapiens (Human), UniProt Q15119). As to the kind of experiment: Inhibitory action of PDHK activity in vitro (kinase reaction, residual PDH activity measured). The test is classed as biochemical.
Where [1] appears, read: PDHK inhibitory activity, class symbol of IC50.
The mark [2] stands for this setting: read-out: PDHK inhibitory activity IC50.
Where [3] appears, read: class symbol of IC50, read-out: PDHK inhibitory activity.

As to `O=C(NCCCO)c1ccc2c(c1)C(O)(C(F)(F)F)c1ccccc1-2` (centres unmarked) [compound 311], the IC50 under setting [1] is greater than 1000 nM and the IC50 under setting [2] turned out to be 7150 nM.

Regarding `O=C(NCCCCO)c1ccc2c(c1)C(O)(C(F)(F)F)c1ccccc1-2` (centres unmarked) [compound 312], the IC50 by setting is: under setting [1], greater than 1000 nM; under setting [2], 1820 nM.

On to `Cc1n[nH]c(-c2cccc3c2-c2ccccc2C3(O)C(F)(F)F)n1` (centres unmarked) [compound 313], for which the IC50 is greater than 1000 nM under setting [1] and greater than 10000 nM under setting [2].

Take `O=C(O)C1CCN1C(=O)c1ccc2c(c1)C(O)(C(F)(F)F)c1ccccc1-2` (centres unmarked) [compound 314]: the IC50 is greater than 1000 nM under setting [1] and greater than 10000 nM under setting [2].

Take `CCNC(=O)c1ccc2c(c1)C(O)(C(F)(F)F)c1ccccc1-2` (centres unmarked) [compound 315]: the IC50 is greater than 1000 nM under setting [1] and 6370 nM under setting [2].

Consider `CCCNC(=O)c1ccc2c(c1)C(O)(C(F)(F)F)c1ccccc1-2` (centres unmarked) [compound 316], for which the IC50 runs as follows: under setting [1], greater than 1000 nM; under setting [2], 4480 nM.

For `OC1(C(F)(F)F)c2ccccc2-c2ccc(Cc3ccccc3)cc21` (centres unmarked) [compound 317], the IC50 by setting is: under setting [1], greater than 1000 nM; under setting [2], 2310 nM.

Turning to `O=C(O)CCCCCOc1ccc2c(c1)C(O)(C(F)(F)F)c1ccccc1-2` (centres unmarked) [compound 318], the IC50 is 100 to 1000 nM under setting [1] and 553 nM under setting [2].

`CN(CCCCO)C(=O)c1ccc2c(c1)C(O)(C(F)(F)F)c1ccccc1-2` (centres unmarked) [compound 319]: the IC50 was greater than 1000 nM under setting [1] and 3090 nM under setting [2].

For `NCCOc1ccc2c(c1)C(O)(C(F)(F)F)c1ccccc1-2` (centres unmarked) [compound 320], the IC50 is, setting by setting: under setting [1], greater than 1000 nM; under setting [2], 8760 nM.

On to `CNCCOc1ccc2c(c1)C(O)(C(F)(F)F)c1ccccc1-2` (centres unmarked) [compound 321], for which the IC50 is greater than 1000 nM under setting [1] and 5380 nM under setting [2].

Consider `CN(C)CCOc1ccc2c(c1)C(O)(C(F)(F)F)c1ccccc1-2` (centres unmarked) [compound 322], for which the IC50 under setting [1] is greater than 1000 nM and the IC50 under setting [2] turned out to be 2500 nM.

As for `CC(C)(C)OC(=O)NCCOc1ccc2c(c1)C(O)(C(F)(F)F)c1ccccc1-2` (centres unmarked) [compound 323], the IC50 by setting is: under setting [1], 100 to 1000 nM; under setting [2], 362 nM.

As to `CN(CCOc1ccc2c(c1)C(O)(C(F)(F)F)c1ccccc1-2)C(=O)OC(C)(C)C` (centres unmarked) [compound 324], the IC50 under setting [1] is 100 to 1000 nM and the IC50 under setting [2] was found to be 203 nM.

As to `CC(=O)NCCOc1ccc2c(c1)C(O)(C(F)(F)F)c1ccccc1-2` (centres unmarked) [compound 325], the IC50 by setting is: under setting [1], greater than 1000 nM; under setting [2], 1080 nM.

Take `CC(=O)N(C)CCOc1ccc2c(c1)C(O)(C(F)(F)F)c1ccccc1-2` (centres unmarked) [compound 326]: the IC50 was 100 to 1000 nM under setting [1] and 303 nM under setting [2].

In the case of `CN(CCCO)C(=O)c1ccc2c(c1)C(O)(C(F)(F)F)c1ccccc1-2` (centres unmarked) [compound 327], the IC50 was greater than 1000 nM under setting [1] and 2940 nM under setting [2].

As to `O=C(c1cc(Cl)c2c(c1)C(O)(C(F)(F)F)c1ccccc1-2)N1CC(OCCO)C1` (centres unmarked) [compound 328], the IC50 was less than 100 nM under setting [1] and 78 nM under setting [2].

As for `CN(C)C(=O)C1CN(C(=O)c2cc(Cl)c3c(c2)C(O)(C(F)(F)F)c2ccccc2-3)C1` (centres unmarked) [compound 329], the IC50 is, setting by setting: under setting [1], less than 100 nM; under setting [2], 66 nM.

`O=C(c1cc(Cl)c2c(c1)C(O)(C(F)(F)F)c1ccccc1-2)N1CC(CO)C1` (centres unmarked) [compound 330]: the IC50 under setting [1] fell in the range of 100 to 1000 nM and the IC50 under setting [2] is 125 nM.

With `NCCCOc1ccc2c(c1)C(O)(C(F)(F)F)c1ccccc1-2` (centres unmarked) [compound 331], the IC50 was greater than 1000 nM under setting [1] and 1420 nM under setting [2].

`CNCCCOc1ccc2c(c1)C(O)(C(F)(F)F)c1ccccc1-2` (centres unmarked) [compound 332]: the IC50 reads like this: under setting [1], 100 to 1000 nM; under setting [2], 912 nM.

In the case of `CN(C)CCCOc1ccc2c(c1)C(O)(C(F)(F)F)c1ccccc1-2` (centres unmarked) [compound 333], the IC50 reads like this: under setting [1], 100 to 1000 nM; under setting [2], 924 nM.

For the compound `CC(=O)N(C)CCCOc1ccc2c(c1)C(O)(C(F)(F)F)c1ccccc1-2` (centres unmarked) [compound 334], the IC50 is 100 to 1000 nM under setting [1] and 674 nM under setting [2].

Turning to `OC1(C(F)(F)F)c2ccccc2-c2c(-c3cncnc3)cc(Cl)cc21` (centres unmarked) [compound 335], the IC50 is less than 100 nM under setting [1] and 80 nM under setting [2].

For the compound `NCc1cccc2c1-c1ccccc1C2(O)C(F)(F)F` (centres unmarked) [compound 336], the IC50 is, setting by setting: under setting [1], greater than 1000 nM; under setting [2], greater than 10000 nM.

In the case of `O=C(c1ccc2c(c1)C(O)(C(F)(F)F)c1ccccc1-2)N1CC(C(=O)N2CCC(O)C2)C1` (centres unmarked) [compound 337], the IC50 runs as follows: under setting [1], 100 to 1000 nM; under setting [2], 499 nM.

Regarding `Cc1cc(C(=O)NCCCCO)cc2c1-c1ccccc1C2(O)C(F)(F)F` (centres unmarked) [compound 338], the IC50 is greater than 1000 nM under setting [3] and greater than 1000 nM under setting [2].

For `O=C(c1cc(Cl)c2c(c1)C(O)(C(F)(F)F)c1ccccc1-2)N1CC(O)C1` (centres unmarked) [compound 339], the IC50 was 100 to 1000 nM under setting [1] and 177 nM under setting [2].

Turning to `CC(=O)NCCCOc1ccc2c(c1)C(O)(C(F)(F)F)c1ccccc1-2` (centres unmarked) [compound 340], the IC50 by setting is: under setting [1], greater than 1000 nM; under setting [2], 1590 nM.

Regarding `CC(C)(C)OC(=O)c1ccc(-c2cc(-c3cccnc3)c3c(c2)C(O)(C(F)(F)F)c2ccccc2-3)cc1` (centres unmarked) [compound 341], the IC50 was less than 100 nM under setting [1] and 79 nM under setting [2].

On to `O=C(O)c1ccc(-c2cc(-c3cccnc3)c3c(c2)C(O)(C(F)(F)F)c2ccccc2-3)cc1` (centres unmarked) [compound 342], for which the IC50 is less than 100 nM under setting [1] and 47 nM under setting [2].

`COC(=O)c1cc(-c2cnn(C)c2)c2c(c1)C(O)(C(F)(F)F)c1ccccc1-2` (centres unmarked) [compound 343]: the IC50 under setting [1] was less than 100 nM and the IC50 under setting [2] stood at 53 nM.

As for `Cn1cc(-c2cc(C(=O)O)cc3c2-c2ccccc2C3(O)C(F)(F)F)cn1` (centres unmarked) [compound 344], the IC50 is, setting by setting: under setting [3], greater than 1000 nM; under setting [2], greater than 1000 nM.

As for `Cn1cc(-c2cc(C(=O)NCCCCO)cc3c2-c2ccccc2C3(O)C(F)(F)F)cn1` (centres unmarked) [compound 345], the IC50 by setting is: under setting [1], 100 to 1000 nM; under setting [2], 121 nM.

In the case of `CN(CCO)C(=O)c1cc(-c2cnn(C)c2)c2c(c1)C(O)(C(F)(F)F)c1ccccc1-2` (centres unmarked) [compound 346], the IC50 under setting [1] is 100 to 1000 nM and the IC50 under setting [2] stood at 200 nM.

Turning to `CCn1cc(-c2cccc3c2-c2ccccc2C3(O)C(F)(F)F)cn1` (centres unmarked) [compound 347], the IC50 runs as follows: under setting [1], less than 100 nM; under setting [2], 88 nM.

Consider `CN(CCOc1ccc2c(c1)C(O)(C(F)(F)F)c1ccccc1-2)C(=O)CO` (centres unmarked) [compound 348], for which the IC50 by setting is: under setting [1], 100 to 1000 nM; under setting [2], 634 nM.

Take `NC(=O)COC1CN(C(=O)c2cc(Cl)c3c(c2)C(O)(C(F)(F)F)c2ccccc2-3)C1` (centres unmarked) [compound 349]: the IC50 under setting [1] was 100 to 1000 nM and the IC50 under setting [2] was determined as 126 nM.

For `Cc1cc(C(=O)N2CC(O)C2)cc2c1-c1ccccc1C2(O)C(F)(F)F` (centres unmarked) [compound 350], the IC50 by setting is: under setting [1], 100 to 1000 nM; under setting [2], 152 nM.

Turning to `Cc1cc(C(=O)N2CC(CO)C2)cc2c1-c1ccccc1C2(O)C(F)(F)F` (centres unmarked) [compound 351], the IC50 is 100 to 1000 nM under setting [1] and 168 nM under setting [2].

In the case of `Cc1cc(C(=O)N2CC(OCC(N)=O)C2)cc2c1-c1ccccc1C2(O)C(F)(F)F` (centres unmarked) [compound 352], the IC50 under setting [1] is 100 to 1000 nM and the IC50 under setting [2] was 109 nM.

For `COC(=O)Cc1ccc2c(c1)C(O)(C(F)(F)F)c1ccccc1-2` (centres unmarked) [compound 353], the IC50 by setting is: under setting [1], greater than 1000 nM; under setting [2], 7400 nM.

In the case of `CN(C)C(=O)c1cc(-c2cnn(C)c2)c2c(c1)C(O)(C(F)(F)F)c1ccccc1-2` (centres unmarked) [compound 354], the IC50 is less than 100 nM under setting [1] and 71 nM under setting [2].

Take `Cn1cc(-c2cc(C(=O)N3CCC3)cc3c2-c2ccccc2C3(O)C(F)(F)F)cn1` (centres unmarked) [compound 355]: the IC50 reads like this: under setting [1], less than 100 nM; under setting [2], 40 nM.

As for `Cn1cc(-c2cc(C(=O)N3CCCC3)cc3c2-c2ccccc2C3(O)C(F)(F)F)cn1` (centres unmarked) [compound 356], the IC50 reads like this: under setting [1], less than 100 nM; under setting [2], 53 nM.

On to `COC(=O)COc1ccc2c(c1)C(O)(C(F)(F)F)c1ccccc1-2` (centres unmarked) [compound 357], for which the IC50 was greater than 1000 nM under setting [1] and 1940 nM under setting [2].

For the compound `Cn1cc(-c2cc(OCC(=O)O)cc3c2-c2ccccc2C3(O)C(F)(F)F)cn1` (centres unmarked) [compound 358], the IC50 is less than 100 nM under setting [1] and 34 nM under setting [2].

As for `O=C1CCCN1CCOc1ccc2c(c1)C(O)(C(F)(F)F)c1ccccc1-2` (centres unmarked) [compound 359], the IC50 runs as follows: under setting [1], 100 to 1000 nM; under setting [2], 187 nM.

On to `O=C(COc1ccc2c(c1)C(O)(C(F)(F)F)c1ccccc1-2)N1CCCC1` (centres unmarked) [compound 360], for which the IC50 is, setting by setting: under setting [1], 100 to 1000 nM; under setting [2], 548 nM.

For `O=C(COc1ccc2c(c1)C(O)(C(F)(F)F)c1ccccc1-2)N1CCCCC1` (centres unmarked) [compound 361], the IC50 is, setting by setting: under setting [1], 100 to 1000 nM; under setting [2], 436 nM.

With `O=C(COc1ccc2c(c1)C(O)(C(F)(F)F)c1ccccc1-2)N1CCOCC1` (centres unmarked) [compound 362], the IC50 under setting [1] is greater than 1000 nM and the IC50 under setting [2] was 1080 nM.

With `NC(=O)COc1cc(-c2cncnc2)c2c(c1)C(O)(C(F)(F)F)c1ccccc1-2` (centres unmarked) [compound 363], the IC50 under setting [1] is less than 100 nM and the IC50 under setting [2] is 47 nM.

As for `COC(=O)c1cc(-c2cncnc2)c2c(c1)C(O)(C(F)(F)F)c1ccccc1-2` (centres unmarked) [compound 364], the IC50 reads like this: under setting [1], 100 to 1000 nM; under setting [2], 178 nM.

Turning to `O=C(COc1ccc2c(c1)C(O)(C(F)(F)F)c1ccccc1-2)NCCO` (centres unmarked) [compound 365], the IC50 reads like this: under setting [1], greater than 1000 nM; under setting [2], 1330 nM.

Take `CN(CCO)C(=O)COc1ccc2c(c1)C(O)(C(F)(F)F)c1ccccc1-2` (centres unmarked) [compound 366]: the IC50 is greater than 1000 nM under setting [1] and 2170 nM under setting [2].

Regarding `O=C(O)c1cc(-c2cncnc2)c2c(c1)C(O)(C(F)(F)F)c1ccccc1-2` (centres unmarked) [compound 367], the IC50 is greater than 1000 nM under setting [3] and greater than 1000 nM under setting [2].

For the compound `CN(C)C(=O)c1cc(-c2cncnc2)c2c(c1)C(O)(C(F)(F)F)c1ccccc1-2` (centres unmarked) [compound 368], the IC50 under setting [1] fell in the range of 100 to 1000 nM and the IC50 under setting [2] is 180 nM.
